Assay results published in PubChem BioAssay AID248 (DTP/NCI, 2004).
Several values for one entry are separate records, joined by “and”; a condition that tells them apart may be missing. Identical values can stand only once. Toxic doses and inconclusive results are not listed. Rule as the data show it: active = T/C of 150% or more; inactive = T/C below 125%.

Tested on: L1210 leukemia ip in BDF1 mice, survival T/C
Assay: NCI In Vivo Anticancer Drug Screen. Data for tumor model L1210 Leukemia (intraperitoneal) in B6D2F1 (BDF1) mice
Settings: endpoint: mean survival time, higher = longer survival
Procedure, shortened: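 Tumor was transplanted into mice, which were then dosed with test compound or vehicle alone. Survival was recorded for each group, and the treated figure was expressed relative to the control figure.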

[1] = dose: 100.0 mg/kg/injection, schedule: Q04DX002 (ip), vehicle: saline
[2] = dose: 200.0 mg/kg/injection, schedule: Q04DX002 (ip), vehicle: saline
[3] = dose: 400.0 mg/kg/injection, schedule: Q04DX002 (ip), vehicle: saline
[4] = dose: 50.0 mg/kg/injection, schedule: Q01DX001 (ip), vehicle: saline
[5] = dose: 100.0 mg/kg/injection, schedule: Q01DX001 (ip), vehicle: saline
[6] = dose: 200.0 mg/kg/injection, schedule: Q01DX001 (ip), vehicle: saline
[7] = dose: 400.0 mg/kg/injection, schedule: Q01DX001 (ip), vehicle: saline
[8] = dose: 100.0 mg/kg/injection, schedule: Q01DX009 (ip), vehicle: saline

Measured: T/C

Cc1nonc1C(=O)O
inactive: [1] 102 % of control | [2] 87 % of control | [3] 98 % of control

O=C(OCC(Cl)(Cl)Cl)c1ccc(Cl)cc1
inactive: dose: 100.0 mg/kg/injection, schedule: Q04DX002 (ip), vehicle: other 97 % of control | dose: 200.0 mg/kg/injection, schedule: Q04DX002 (ip), vehicle: other 97 % of control | dose: 400.0 mg/kg/injection, schedule: Q04DX002 (ip), vehicle: other 97 % of control

NC(=O)NC(=O)CC1NC(=O)NC1=O (stereo not given)
inactive: [1] 103 % of control | [2] 106 % of control | [3] 87 % of control

Nc1ccc(S(=O)(=O)O)c2cccc(O)c12
inactive: dose: 100.0 mg/kg/injection, schedule: Q04DX002 (ip), vehicle: carboxymethylcellulose (CMC) 103 % of control | dose: 100.0 mg/kg/injection, schedule: Q04DX003 (ip), vehicle: Klucel (hydroxypropylcellulose) (HPC) 101 % of control | dose: 200.0 mg/kg/injection, schedule: Q04DX002 (ip), vehicle: carboxymethylcellulose (CMC) 107 % of control | dose: 200.0 mg/kg/injection, schedule: Q04DX003 (ip), vehicle: Klucel (hydroxypropylcellulose) (HPC) 91 % of control | dose: 400.0 mg/kg/injection, schedule: Q04DX003 (ip), vehicle: Klucel (hydroxypropylcellulose) (HPC) 101 % of control

C=C1C(=O)O[C@@H]2[C@H]3O[C@]3(C)CCC=C(C)CC[C@@H]12
inactive: dose: 6.25 mg/kg/injection, schedule: Q01DX009 (ip), vehicle: alcohol 97 % of control | dose: 12.5 mg/kg/injection, schedule: Q01DX009 (ip), vehicle: alcohol 103 % of control | dose: 25.0 mg/kg/injection, schedule: Q01DX009 (ip), vehicle: alcohol 95 % of control

NC(=Nc1ccc(N)cc1)C(N)=Nc1ccc(N)cc1
inactive: dose: 50.0 mg/kg/injection, schedule: Q01DX009 (ip), vehicle: saline with Tween-80 97 % of control | dose: 100.0 mg/kg/injection, schedule: Q01DX009 (ip), vehicle: saline with Tween-80 95 % of control and 98 % of control | dose: 100.0 mg/kg/injection, schedule: Q04DX003 (ip), vehicle: saline with Tween-80 96 % of control | dose: 200.0 mg/kg/injection, schedule: Q01DX009 (ip), vehicle: saline with Tween-80 106 % of control | dose: 200.0 mg/kg/injection, schedule: Q04DX003 (ip), vehicle: saline with Tween-80 98 % of control | dose: 400.0 mg/kg/injection, schedule: Q01DX009 (ip), vehicle: saline with Tween-80 96 % of control and 112 % of control | dose: 400.0 mg/kg/injection, schedule: Q04DX003 (ip), vehicle: saline with Tween-80 91 % of control

O=C(Nc1ccc(Br)cc1)c1cc(Br)cc(Br)c1O
inactive: dose: 1.56 mg/kg/injection, schedule: Q04DX002 (ip), vehicle: saline 100 % of control | dose: 3.12 mg/kg/injection, schedule: Q04DX002 (ip), vehicle: saline 100 % of control | dose: 6.25 mg/kg/injection, schedule: Q04DX002 (ip), vehicle: saline 97 % of control | dose: 12.5 mg/kg/injection, schedule: Q04DX002 (ip), vehicle: saline 103 % of control and 107 % of control | dose: 25.0 mg/kg/injection, schedule: Q04DX002 (ip), vehicle: saline 104 % of control and 89 % of control

O=C1C(c2[nH]c3cc4c(cc3c2O)OCO4)=Nc2cc3c(cc21)OCO3
inactive: [4] 100 % of control | [5] 103 % of control | [6] 97 % of control | [7] 94 % of control

CN(C)c1ccc(/C=C2\CC(C)(C)c3ccccc3C2=O)cc1
inactive: dose: 100.0 mg/kg/injection, schedule: Q04DX003 (ip), vehicle: saline sonified 103 % of control | dose: 200.0 mg/kg/injection, schedule: Q04DX003 (ip), vehicle: saline sonified 97 % of control | dose: 400.0 mg/kg/injection, schedule: Q04DX003 (ip), vehicle: saline sonified 103 % of control

CCOC(=O)N1CCOCC1
inactive: [8] 100 % of control | dose: 200.0 mg/kg/injection, schedule: Q01DX009 (ip), vehicle: saline 97 % of control | dose: 400.0 mg/kg/injection, schedule: Q01DX009 (ip), vehicle: saline 96 % of control

CC1(C)N=C(N)N=C(N)N1c1ccc(CCNS(=O)(=O)c2ccc(S(=O)(=O)F)cc2)cc1
inactive: dose: 0.8 mg/kg/injection, schedule: Q01DX009 (ip), vehicle: saline 97 % of control | dose: 4.0 mg/kg/injection, schedule: Q01DX009 (ip), vehicle: saline 104 % of control | dose: 20.0 mg/kg/injection, schedule: Q01DX009 (ip), vehicle: saline 103 % of control | [8] 103 % of control | dose: 500.0 mg/kg/injection, schedule: Q01DX009 (ip), vehicle: saline 108 % of control

O=C(Nc1ccc(C2=NCCN2)cc1)c1ccc(C(=O)Nc2ccc(C3=NCCN3)cc2)c(F)c1
inactive: dose: 2.75 mg/kg/injection, schedule: Q01DX Z (ip), vehicle: carboxymethylcellulose (CMC) 119 % of control | dose: 11.0 mg/kg/injection, schedule: Q01DX Z (ip), vehicle: carboxymethylcellulose (CMC) 122 % of control | dose: 31.0 mg/kg/injection, schedule: Q01DX Z (oral), vehicle: carboxymethylcellulose (CMC) 100 % of control | dose: 62.0 mg/kg/injection, schedule: Q01DX Z (oral), vehicle: carboxymethylcellulose (CMC) 101 % of control | dose: 112.0 mg/kg/injection, schedule: Q01DX Z (oral), vehicle: carboxymethylcellulose (CMC) 105 % of control | dose: 180.0 mg/kg/injection, schedule: Q01DX Z (ip), vehicle: carboxymethylcellulose (CMC) 94 % of control | dose: 225.0 mg/kg/injection, schedule: Q01DX Z (oral), vehicle: carboxymethylcellulose (CMC) 103 % of control
active: dose: 22.0 mg/kg/injection, schedule: Q01DX Z (ip), vehicle: carboxymethylcellulose (CMC) 227 % of control | dose: 45.0 mg/kg/injection, schedule: Q01DX Z (ip), vehicle: carboxymethylcellulose (CMC) 291 % of control | dose: 90.0 mg/kg/injection, schedule: Q01DX Z (ip), vehicle: carboxymethylcellulose (CMC) 167 % of control

COC(OC)/C(C)=N/NC(N)=O
inactive: dose: 100.0 mg/kg/injection, schedule: Q01DX001 (ip), vehicle: carboxymethylcellulose (CMC) 88 % of control | dose: 200.0 mg/kg/injection, schedule: Q01DX001 (ip), vehicle: carboxymethylcellulose (CMC) 116 % of control | dose: 400.0 mg/kg/injection, schedule: Q01DX001 (ip), vehicle: carboxymethylcellulose (CMC) 108 % of control

COc1ccc2[nH]c3c(C)c4cc[n+](C)cc4c(C)c3c2c1
inactive: dose: 6.25 mg/kg/injection, schedule: Q04DX003 (ip), vehicle: saline sonified 105 % of control | dose: 10.0 mg/kg/injection, schedule: Q04DX003 (ip), vehicle: saline 115 % of control | dose: 12.5 mg/kg/injection, schedule: Q04DX003 (ip), vehicle: saline sonified 122 % of control | dose: 20.0 mg/kg/injection, schedule: Q04DX003 (ip), vehicle: saline 88 % of control

Cc1nc2ccccc2c(Oc2ccccc2)c1-c1ccccc1
inactive: [4] 102 % of control | [5] 102 % of control | [6] 104 % of control | [7] 96 % of control

CSc1ncc(COP(=S)(OCc2cnc(SC)nc2N)OCc2cnc(SC)nc2N)c(N)n1
inactive: dose: 12.5 mg/kg/injection, schedule: Q04DX003 (ip), vehicle: saline 100 % of control | dose: 25.0 mg/kg/injection, schedule: Q04DX003 (ip), vehicle: saline 103 % of control | dose: 50.0 mg/kg/injection, schedule: Q04DX003 (ip), vehicle: saline 97 % of control

Clc1nc2nc3n(c2nc1Cl)CCC3(Br)Br
inactive: dose: 12.5 mg/kg/injection, schedule: Q01DX009 (ip), vehicle: other 112 % of control | dose: 25.0 mg/kg/injection, schedule: Q01DX009 (ip), vehicle: other 114 % of control | dose: 50.0 mg/kg/injection, schedule: Q01DX009 (ip), vehicle: other 112 % of control | dose: 100.0 mg/kg/injection, schedule: Q01DX009 (ip), vehicle: other 110 % of control

Nc1cncc([N+](=O)[O-])c1N
inactive: dose: 100.0 mg/kg/injection, schedule: Q04DX003 (ip), vehicle: saline 98 % of control | dose: 200.0 mg/kg/injection, schedule: Q04DX003 (ip), vehicle: saline 96 % of control | dose: 400.0 mg/kg/injection, schedule: Q04DX003 (ip), vehicle: saline 94 % of control
